One test has as its target T1, PI3Kδ (Homo sapiens, UniProt O00329).
T1 construct: made in house
Kind of test: Enzymatic activity of PI3K isoforms, TR-FRET assay (PIP3 formation). Format: biochemical. The following applies: PI3Kδ; TR-FRET, 2×Km ATP, 10 μM PIP2; read-out: IC50. An excerpt:
Enzymatic Activity of PI3K Isoforms
The TR-FRET assay was used to monitor formation of the product 3,4,5-inositol triphosphate molecule (PIP3) as it competed with fluorescently labeled PIP3 for binding to the GRP-1 pleckstrin homology domain protein. An increase in […] product results in a decrease in TR-FRET signal as the labeled fluorophore is displaced from the GRP-1 protein binding site.
Class I PI3K isoforms were expressed and purified as heterodimeric recombinant proteins. All assay reagents and buffers for the TR-FRET assay were purchased from Millipore. […] After an assay reaction time of 30 minutes at 25° C., reactions were terminated with a final concentration of 10 mM EDTA, 10 nM labeled-PIP3, and 35 nM Europium labeled GRP-1 detector protein before reading TR-FRET on an Envision plate reader (Ex: 340 nm; Em: 615/665 nm; 100 μs delay and 500 μs read window).
Data are normalized based on a positive (1 uM wortmanin) and negative (DMSO) controls. The α, β, δ, and γ IC50 values were calculated from the fit of the dose-response curves to a four-parameter equation. IC50 are reported in units of nM.
IC50 values were obtained for all PI3K isoforms (α, β, δ, and γ), and Table 2 summarizes the IC50 data collected for PI3Kδ in this Example B1.
For orientation: Time-resolved FRET reads energy transfer from a long-lived donor to a nearby acceptor.

A further test has as its system basophils. The experiment in a line: Basophil activation in human whole blood (Flow2 CAST kit, CD63 positive cells). The test is classed as cell-based. The conditions noted are these: Homo sapiens, basophils activated with anti-FcεRI mAb or fMLP, geometric mean. As for the experimental part: Effect on basophil activation was measured in human whole blood using the Flow2 CAST® kit (Buhlmann Laboratories AG, Baselstrasse, Switzerland) following the protocol provided by the manufacturer with minor modifications. Human whole blood was collected into K2-EDTA venipuncture tubes. Whole blood samples were treated with either DMSO (0.3% final) or a serial dilution of compounds in DMSO for 60 minutes at 37° C. Basophils were then activated either with anti-FcεRI mAb or with fMLP. To activate basophils using the anti-FcεRI mAb; 50 μl of whole blood was mixed with 110 μl of stimulation buffer (B-BAT-STB) and 20 μl of anti-FcεRI (B-BAT-STCON). To activate basophils with fMLP; 50 μl of whole blood was mixed with 80 μl of stimulation buffer (B-BAT-STB) and 50 μl of fMLP (B-CCR-FMLP). Stimulation buffer was used as a negative control. 20 μl of the staining reagent (combination of anti-human CD63-FITC and anti-human CCR3-PE mAbs) was then added to each tube. […] Subsequently, erythrocytes were lysed and fixed by the addition of 2 ml of lysing solution (B-BAT-LYR) for 10 min at room temperature. Cells were pelleted by centrifugation at 1200 rpm for 10 min at room temperature in a swing-out rotor. Supernatant was aspirated and cell pellet resuspended in 400 μl of wash buffer. Flow cytometric analysis of the basophil activation was performed on a FC500MPL flow cytometer (Beckman Coulter Inc., Fullerton, Calif.). CCR3-staining and side scatter were applied to gate at least 200 basophils that expressed a high density of CCR3. The percent CD63 positive cells within the gated basophil population were determined in different treatment groups and normalized to the vehicle control (0.3% DMSO) with anti-FcεRI mAb of fMLP stimulus as 100%. Final compound concentration was adjusted to correct for dilution effect of added reagents. The EC50 values were calculated from the analysis of the dose-response curves to a four-parameter equation. All EC50 values represent geometric mean values and are reported in units of nM.

T1 sequence (O00329 whole entry): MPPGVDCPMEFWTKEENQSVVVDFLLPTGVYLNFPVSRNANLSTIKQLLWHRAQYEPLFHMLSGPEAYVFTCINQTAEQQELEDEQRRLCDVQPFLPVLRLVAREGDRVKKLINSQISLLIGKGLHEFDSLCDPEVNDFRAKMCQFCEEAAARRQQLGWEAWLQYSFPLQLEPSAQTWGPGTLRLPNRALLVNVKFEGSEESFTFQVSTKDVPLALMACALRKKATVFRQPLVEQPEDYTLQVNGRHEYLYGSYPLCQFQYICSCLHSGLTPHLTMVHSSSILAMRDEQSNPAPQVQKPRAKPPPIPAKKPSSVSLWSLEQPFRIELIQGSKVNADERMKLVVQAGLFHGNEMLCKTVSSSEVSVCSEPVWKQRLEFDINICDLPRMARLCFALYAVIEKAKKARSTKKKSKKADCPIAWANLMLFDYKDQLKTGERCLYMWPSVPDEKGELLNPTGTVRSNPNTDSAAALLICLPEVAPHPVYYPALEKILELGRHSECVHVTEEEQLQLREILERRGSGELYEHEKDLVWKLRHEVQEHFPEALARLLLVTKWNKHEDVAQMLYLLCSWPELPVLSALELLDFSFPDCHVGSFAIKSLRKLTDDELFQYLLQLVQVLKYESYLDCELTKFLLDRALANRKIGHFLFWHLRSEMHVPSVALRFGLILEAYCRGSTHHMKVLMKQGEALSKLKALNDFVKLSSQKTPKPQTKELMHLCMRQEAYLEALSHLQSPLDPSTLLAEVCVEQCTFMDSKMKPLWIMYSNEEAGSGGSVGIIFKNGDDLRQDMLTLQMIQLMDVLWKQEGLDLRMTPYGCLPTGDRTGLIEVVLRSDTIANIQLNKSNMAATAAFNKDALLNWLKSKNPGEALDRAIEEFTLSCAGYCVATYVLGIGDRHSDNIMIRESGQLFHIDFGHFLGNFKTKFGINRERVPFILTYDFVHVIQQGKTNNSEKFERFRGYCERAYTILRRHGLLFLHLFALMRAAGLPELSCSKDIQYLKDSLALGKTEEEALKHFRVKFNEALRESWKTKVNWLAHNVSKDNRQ
T1 sequence (P27986 whole entry partner): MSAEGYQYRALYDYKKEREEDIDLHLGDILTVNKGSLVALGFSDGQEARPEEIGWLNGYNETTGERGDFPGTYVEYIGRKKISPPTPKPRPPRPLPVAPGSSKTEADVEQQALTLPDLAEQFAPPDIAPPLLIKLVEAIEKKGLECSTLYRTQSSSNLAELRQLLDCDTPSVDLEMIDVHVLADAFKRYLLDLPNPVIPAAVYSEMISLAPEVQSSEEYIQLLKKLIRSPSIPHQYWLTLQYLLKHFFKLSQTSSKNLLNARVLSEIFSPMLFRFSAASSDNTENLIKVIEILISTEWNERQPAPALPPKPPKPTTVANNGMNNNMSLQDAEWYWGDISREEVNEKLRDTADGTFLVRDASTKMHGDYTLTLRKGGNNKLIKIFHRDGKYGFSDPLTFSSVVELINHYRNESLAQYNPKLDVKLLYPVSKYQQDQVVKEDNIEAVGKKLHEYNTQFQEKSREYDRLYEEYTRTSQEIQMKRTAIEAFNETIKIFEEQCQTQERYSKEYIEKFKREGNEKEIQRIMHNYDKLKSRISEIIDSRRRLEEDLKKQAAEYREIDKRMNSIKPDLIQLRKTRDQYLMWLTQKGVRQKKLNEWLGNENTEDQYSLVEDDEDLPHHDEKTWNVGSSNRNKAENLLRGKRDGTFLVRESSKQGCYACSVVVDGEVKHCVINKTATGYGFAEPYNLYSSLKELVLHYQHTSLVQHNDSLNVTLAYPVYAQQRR

For `CC(Nc1nc(N)nc(N)c1C#N)c1nc2cccc(O)c2c(=O)n1-c1ccccc1` (single isomer, unassigned) [Compound 2a], the IC50 on PI3Kδ was less than 1 nM. Further, in the test on basophils, the EC50 fell in the range of 1 to 10 nM.

For `Cc1cccc2c(=O)n(-c3ccccc3)c(C(C)Nc3nc(N)nc(N)c3C#N)nc12` (single isomer, unassigned) [Compound 3a], the IC50 on PI3Kδ was in the range of 1 to 10 nM. For the same compound, the EC50 in the test on basophils lay within 10 to 50 nM.

For `Cc1cccc2c(=O)n(-c3cccc(Cl)c3)c(C(C)Nc3nc(N)nc(N)c3C#N)nc12` (single isomer, unassigned) [Compound 6a], the IC50 on PI3Kδ was less than 1 nM. Also, the EC50 in the test on basophils is greater than 50 nM.

As for `CC(Nc1nc(N)nc(N)c1C#N)c1nc2cccc(C#N)c2c(=O)n1-c1ccccc1` (single isomer, unassigned) [Compound 7a], the IC50 on PI3Kδ lay within 1 to 10 nM. Besides, in the test on basophils, the EC50 was less than 1 nM.

`CC(Nc1nc(N)nc(N)c1C#N)c1nc2ccc(F)cc2c(=O)n1-c1ccccc1` (single isomer, unassigned) [Compound 9a]: at PI3Kδ, the IC50 is 1 to 10 nM. Moreover, in the test on basophils, the EC50 was 1 to 10 nM.

As to `CC(Nc1nc(N)nc(N)c1C#N)c1nc2ccc(F)cc2c(=O)n1-c1cccc(Cl)c1` (single isomer, unassigned) [Compound 14a], the IC50 on PI3Kδ was 1 to 10 nM. In addition, the EC50 with basophils was in the range of 1 to 10 nM.

`Cc1cccc2nc(C(C)Nc3nc(N)nc(N)c3C#N)n(-c3ccccc3)c(=O)c12` (single isomer, unassigned) [Compound 23a]: the IC50 at PI3Kδ was less than 1 nM. Moreover, the EC50 in the test with basophils was less than 1 nM.

Take `CC(Nc1nc(N)nc(N)c1C#N)c1nc2cccc(Cl)c2c(=O)n1-c1cc(F)cc(C(F)(F)F)c1` (single isomer, unassigned) [Compound 45a]: the IC50 on PI3Kδ is 1 to 10 nM. Moreover, in the test on basophils, the EC50 was greater than 50 nM.

For the compound `CC(Nc1nc(N)nc(N)c1C#N)c1nc2c(F)cccc2c(=O)n1-c1ccccc1` (single isomer, unassigned) [Compound 58a], the IC50 on PI3Kδ fell in the range of 1 to 10 nM. The EC50 in the test on basophils was in the range of 1 to 10 nM.

As to `CC(Nc1nc(N)nc(N)c1C#N)c1nc2c(F)ccc(F)c2c(=O)n1-c1ccccc1` (single isomer, unassigned) [Compound 59a], the 50% inhibitory concentration (IC50) on PI3Kδ was less than 1 nM. The EC50 in the test with basophils lay in the range of 1 to 10 nM.

For the compound `Cc1ccc(F)c2nc(C(C)Nc3nc(N)nc(N)c3C#N)n(-c3ccccc3)c(=O)c12` (single isomer, unassigned) [Compound 60a], at PI3Kδ, the IC50 was less than 1 nM. Further, in the test on basophils, the EC50 is less than 1 nM.

Regarding `CC(Nc1nc(N)nc(N)c1C#N)c1nc2cccc(C(F)F)c2c(=O)n1-c1ccccc1` (single isomer, unassigned) [Compound 62a], the IC50 on PI3Kδ is less than 1 nM. Moreover, the EC50 in the test on basophils is less than 1 nM.

Take `Cc1ccc(F)c2nc(C(C)Nc3nc(N)nc(N)c3C#N)n(-c3cccc(C#N)c3)c(=O)c12` (single isomer, unassigned) [Compound 64a]: at PI3Kδ, the IC50 was less than 1 nM. The EC50 in the test on basophils is 1 to 10 nM.

Consider `CC(Nc1nc(N)nc(N)c1C#N)c1nc2c(F)cc(F)cc2c(=O)n1-c1cc(F)cc(F)c1` (single isomer, unassigned) [Compound 70a], for which the IC50 on PI3Kδ was 10 to 50 nM. Further, the EC50 with basophils was in the range of 1 to 10 nM.

Turning to `CC(Nc1nc(N)nc(N)c1C#N)c1nc2cccc(F)c2c(=O)n1-c1ccccc1` (single isomer, unassigned) [Compound 81a], the IC50 at PI3Kδ lay in the range of 1 to 10 nM. Also, the EC50 in the test on basophils is less than 1 nM.

With `CC(Nc1nc(N)nc(N)c1C#N)c1nc2cccc(C(N)=O)c2c(=O)n1-c1ccccc1` (single isomer, unassigned) [Compound 92a], the IC50 on PI3Kδ is 1 to 10 nM. Further, the EC50 in the test with basophils was greater than 50 nM.

Regarding `CC(Nc1nc(N)nc(N)c1C#N)c1nc2cccc(S(C)(=O)=O)c2c(=O)n1-c1ccccc1` (single isomer, unassigned) [Compound 95a], the IC50 at PI3Kδ lay in the range of 1 to 10 nM. Besides, in the test with basophils, the 50% effective concentration (EC50) was in the range of 10 to 50 nM.

On to `COc1cc(F)cc(-n2c(C(C)Nc3nc(N)nc(N)c3C#N)nc3cccc(Cl)c3c2=O)c1C` (single isomer, unassigned) [Compound 110a-1], for which the IC50 on PI3Kδ is greater than 50 nM.

For the compound `COc1cc(F)cc(-n2c(C(C)Nc3nc(N)nc(N)c3C#N)nc3cccc(Cl)c3c2=O)c1C` (single isomer, unassigned) [Compound 110a-2], at PI3Kδ, the IC50 was in the range of 1 to 10 nM.

For the compound `CC(Nc1nc(N)nc(N)c1C#N)c1nc2cccc(C#N)c2c(=O)n1-c1cc(F)cc(C#N)c1` (single isomer, unassigned) [Compound 113a], the IC50 at PI3Kδ was greater than 50 nM.

Take `CC(Nc1nc(N)nc(N)c1C#N)c1nc2cccc(F)c2c(=O)n1-c1cc(Cl)cc(C(F)F)c1` (single isomer, unassigned) [Compound 114a]: the IC50 at PI3Kδ was greater than 50 nM.

As for `CC(Nc1nc(N)nc(N)c1C#N)c1nc2cccc(F)c2c(=O)n1-c1cc(C(F)F)cc(C(F)F)c1` (single isomer, unassigned) [Compound 118a], the IC50 on PI3Kδ is greater than 50 nM.

`CC(Nc1nc(N)nc(N)c1C#N)c1nc2cccc(Br)c2c(=O)n1-c1cccc(F)c1` (single isomer, unassigned) [Compound 130a]: on PI3Kδ, the IC50 is less than 1 nM.

On to `N#Cc1c(N)nc(N)nc1NC(CC(F)(F)F)c1nc2ccc(F)cc2c(=O)n1-c1ccccc1` (single isomer, unassigned) [Compound 132a], for which the IC50 on PI3Kδ was greater than 50 nM.

With `N#Cc1c(N)nc(N)nc1NC(CC(F)(F)F)c1nc2ccc(F)cc2c(=O)n1-c1cc(F)cc(F)c1` (single isomer, unassigned) [Compound 133a], the IC50 at PI3Kδ was greater than 50 nM.

With `CC(Nc1nc(N)nc(N)c1C#N)c1nc2cccc(F)c2c(=O)n1-c1cc(C(F)F)cc(C(F)F)c1` (single isomer, unassigned) [Compound 136a], on PI3Kδ, the IC50 is greater than 50 nM.

In the case of `CC(Nc1nc(N)nc(N)c1C#N)c1nc2cccc(C#N)c2c(=O)n1-c1cc(F)cc(C(F)F)c1` (single isomer, unassigned) [Compound 138a], the IC50 at PI3Kδ lay within 10 to 50 nM.

With `CC(Nc1nc(N)nc(N)c1C#N)c1nc2ccc(C#N)cc2c(=O)n1-c1ccccc1` (single isomer, unassigned) [Compound 159a], at PI3Kδ, the IC50 was greater than 50 nM.

As to `CC(Nc1nc(N)nc(N)c1C#N)c1nc2cccc(C(=O)O)c2c(=O)n1-c1ccccc1` (single isomer, unassigned) [Compound 162a, 2-(1-((2,6-diamino-5-cyanopyrimidin-4-yl)amino)ethyl)-4-oxo-3-phenyl-3,4-dihydroquinazoline-5-carboxylic acid], the IC50 on PI3Kδ was greater than 50 nM.

With `N#Cc1c(N)nc(N)nc1NC(CC(F)(F)F)c1nc2cccc(Cl)c2c(=O)n1-c1cc(F)cc(F)c1` (single isomer, unassigned) [Compound 165a], at PI3Kδ, the IC50 was greater than 50 nM.

Take `N#Cc1c(N)nc(N)nc1NC(CC(F)(F)F)c1nc2cccc(F)c2c(=O)n1-c1cc(F)cc(F)c1` (single isomer, unassigned) [Compound 166a]: the IC50 on PI3Kδ is greater than 50 nM.

`Cc1c(-n2c(C(C)Nc3nc(N)nc(N)c3C#N)nc3cccc(Cl)c3c2=O)ccc(F)c1F` (single isomer, unassigned) [Compound 204a-1]: on PI3Kδ, the IC50 lay within 10 to 50 nM.

As for `Cc1c(-n2c(C(C)Nc3nc(N)nc(N)c3C#N)nc3cccc(Cl)c3c2=O)ccc(F)c1F` (single isomer, unassigned) [Compound 204a-2], at PI3Kδ, the IC50 lay within 1 to 10 nM.

As for `N#Cc1c(N)nc(N)nc1NCc1nc2cc(F)c(F)cc2c(=O)n1-c1cc(F)cc(F)c1` [Compound 80, 2,4-diamino-6-((3-(3,5-difluorophenyl)-6,7-difluoro-4-oxo-3,4-dihydroquinazolin-2-yl)methylamino)pyrimidine-5-carbonitrile], the IC50 on PI3Kδ is greater than 50 nM.

On to `N#Cc1cccc(-n2c(CNc3nc(N)nc(N)c3C#N)nc3c(Cl)cccc3c2=O)c1` [Compound 84, 2,4-diamino-6-((8-chloro-3-(3-cyanophenyl)-4-oxo-3,4-dihydroquinazolin-2-yl)methylamino)pyrimidine-5-carbonitrile], for which the IC50 at PI3Kδ was greater than 50 nM.

One may read the IC50 as the point on the concentration scale where inhibition reaches its midpoint. By EC50 is commonly meant the concentration needed to bring the measured effect to its halfway point.

Values taken from patent publication US9029384B2, “Phosphatidylinositol 3-kinase inhibitors” (Gilead Calistoga LLC, priority 2012, dated 2015).
